The values below come from ChEMBL document CHEMBL1130744, “Potent and selective inhibitors of the proteasome: dipeptidyl boronic acids” (Bioorg Med Chem Lett, 1998).

Each structure is given as a SMILES string. Non-standard residues stand in square brackets, D forms with d. Residues, ends and D or L forms follow the SMILES beside them. *: point of attachment. 1Nal = N[C@@H](Cc1cccc2ccccc12)C(=O)O; 2Nal = N[C@@H](Cc1ccc2ccccc2c1)C(=O)O; Cbz = O=C(OCc1ccccc1)*; CF3 = FC(F)(F)*; CH2Cl = ClC*

One assay has as its target Cathepsin B (Homo sapiens, UniProt P07858). The assay can be described thus: Inhibitory activity against Cathepsin B.
Usually Ki stands for a dissociation constant, usually derived from enzyme kinetics or from competition with a known ligand. `CC(C)C[C@H](NC(=O)[C@H](CC(C)C)NC(=O)[C@H](CC(C)C)NC(=O)OCc1ccccc1)B(O)O`: affinity was put at a Ki of 6.1 nM.

In a further assay the target is T1, Cathepsin G (Homo sapiens, UniProt P08311).
T1 sequence (P08311 whole entry): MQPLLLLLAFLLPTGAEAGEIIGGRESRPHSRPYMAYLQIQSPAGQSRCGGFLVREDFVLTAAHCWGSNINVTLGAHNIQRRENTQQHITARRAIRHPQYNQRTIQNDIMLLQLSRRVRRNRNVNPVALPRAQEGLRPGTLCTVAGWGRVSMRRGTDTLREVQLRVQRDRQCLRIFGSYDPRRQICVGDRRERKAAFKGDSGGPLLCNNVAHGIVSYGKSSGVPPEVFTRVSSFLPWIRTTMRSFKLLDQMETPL
The assay can be described thus: Inhibitory activity against human cathepsin G.
Compound `CC(C)C[C@H](NC(=O)[C@H](Cc1ccccc1)NC(=O)c1cnccn1)B(O)O` [BORTEZOMIB] returned a Ki of 630 nM.

For the next assay, the target named is Chymotrypsinogen B (Homo sapiens, UniProt P17538). The assay can be described thus: Inhibitory activity against human Chymotrypsinogen.
Sequence of Chymotrypsinogen B (P17538 34-164 limits assumed, other chains not shown): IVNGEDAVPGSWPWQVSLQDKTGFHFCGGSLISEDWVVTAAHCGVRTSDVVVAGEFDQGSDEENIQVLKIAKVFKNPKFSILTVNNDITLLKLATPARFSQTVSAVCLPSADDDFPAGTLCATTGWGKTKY
Sequence of Chymotrypsinogen B (P17538 167-263 limits assumed, other chains not shown): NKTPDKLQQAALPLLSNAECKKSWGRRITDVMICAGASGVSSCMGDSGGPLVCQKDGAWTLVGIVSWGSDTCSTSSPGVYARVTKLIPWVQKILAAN
For `CC(C)C[C@H](NC(=O)[C@H](Cc1ccccc1)NC(=O)c1cnccn1)B(O)O` [BORTEZOMIB], the affinity corresponds to a Ki of 320 nM. This counts as sub-micromolar.

In a further assay the target is T2, Neutrophil elastase (Homo sapiens, UniProt P08246).
T2 sequence (P08246 whole entry): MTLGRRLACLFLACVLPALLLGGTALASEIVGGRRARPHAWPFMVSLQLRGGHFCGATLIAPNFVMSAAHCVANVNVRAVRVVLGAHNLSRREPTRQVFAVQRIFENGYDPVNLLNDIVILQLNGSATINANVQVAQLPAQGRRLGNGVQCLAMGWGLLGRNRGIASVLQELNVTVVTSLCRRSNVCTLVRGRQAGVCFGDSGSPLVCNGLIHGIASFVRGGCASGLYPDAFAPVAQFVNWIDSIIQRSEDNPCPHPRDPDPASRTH
The assay can be described thus: Inhibitory activity against human leukocyte elastase.
In the case of `CC(C)C[C@H](NC(=O)[C@H](Cc1ccccc1)NC(=O)c1cnccn1)B(O)O` [BORTEZOMIB], the Ki turned out to be 2300 nM.

The target of another assay is Proteasome. The assay can be described thus: Inhibitory activity against 20S Proteasome. The format is subcellular, Oryctolagus cuniculus.
With `CC(C)C[C@H](NC(=O)OCc1ccccc1)C(=O)N[C@@H](CC(C)C)C(=O)N[C@@H](C)C=O` (Cbz-Leu-Leu-Ala-aldehyde), the Ki amounted to 210 nM. This counts as sub-micromolar.

The compound `CC(C)C[C@H](NC(=O)OCc1ccccc1)C(=O)N[C@@H](CC(C)C)C(=O)N[C@@H](CC(C)C)C(=O)c1nc2ccccc2o1` had a Ki of 214 nM.

Compound `CC(C)C[C@@H](C=O)NC(=O)[C@H](Cc1ccccc1)NC(=O)c1cnccn1` yielded a Ki of 1600 nM.

Consider `CC(C)C[C@H](NC(=O)[C@H](Cc1cccc2ccccc12)NC(=O)c1cnccn1)B(O)O`, for which the Ki was found to be 0.18 nM.

`CC(C)C[C@@H](C=O)NC(=O)[C@H](CC(C)C)NC(=O)[C@H](CC(C)C)NC(=O)OCc1ccccc1` [MG-132] (Cbz-Leu-Leu-Leu-aldehyde) returned an inhibitory constant (Ki) of 4 nM.

The compound `CC(C)C[C@@H](C=O)NC(=O)[C@H](CC(C)C)NC(=O)[C@H](Cc1ccc2ccccc2c1)NC(=O)OCc1ccccc1` (Cbz-[2Nal]-Leu-Leu-aldehyde) returned a Ki of 0.24 nM. This Ki is about 17-fold lower than that of the compound before.

In the case of `CC(C)C[C@@H](C=O)NC(=O)[C@H](Cc1cccc2ccccc12)NC(=O)c1cnccn1`, the affinity, expressed as Ki, was 97 nM.

`CC(C)C[C@H](NC(=O)OCc1ccccc1)C(=O)N[C@@H](CC(C)C)C(=O)N[C@H](C=O)Cc1ccc2ccccc2c1` (Cbz-Leu-Leu-[2Nal]-aldehyde) gave an inhibition constant Ki of 25 nM.

In turn, `CC(C)C[C@H](NC(=O)[C@H](CC(C)C)NC(=O)[C@H](CC(C)C)NC(=O)OCc1ccccc1)C(=O)CCl` (Cbz-Leu-Leu-Leu-CH2Cl) gave a Ki of 22000 nM.

Regarding `CC(C)C[C@@H](C=O)NC(=O)[C@H](Cc1cccc2ccccc12)NC(=O)[C@H](Cc1ccc2ccccc2c1)NC(=O)OCc1ccccc1` (Cbz-[2Nal]-[1Nal]-Leu-aldehyde), the Ki came out at 0.015 nM.

Consider `CC(C)C[C@H](NC(=O)OCc1ccccc1)C(=O)N[C@@H](CC(C)C)C(=O)N[C@@H](CC(C)C)C(=O)C(F)(F)F` (Cbz-Leu-Leu-Leu-CF3), for which the affinity corresponds to a Ki of 1400 nM. This Ki lies about 93000-fold higher than the previous one.

`CC(C)C[C@H](NC(=O)OCc1ccccc1)C(=O)N[C@@H](CC(C)C)C(=O)NCC=O` (Cbz-Leu-Leu-Gly-aldehyde) showed a Ki of 3800 nM. This Ki lies about 2.7-fold higher than the previous one.

As for `CC[C@@H](C)[C@@H](C=O)NC(=O)[C@H](CC(C)C)NC(=O)[C@H](CC(C)C)NC(=O)OCc1ccccc1`, the Ki was found to be 130 nM.

`CCOC(=O)C(=O)C(=O)[C@H](CC(C)C)NC(=O)[C@H](CC(C)C)NC(=O)[C@H](CC(C)C)NC(=O)OCc1ccccc1` displayed a Ki of 45 nM.

A further assay concerns the target Prothrombin (Homo sapiens, UniProt P00734). The assay can be described thus: Inhibitory activity against thrombin.
The compound `CC(C)C[C@H](NC(=O)[C@H](Cc1ccccc1)NC(=O)c1cnccn1)B(O)O` [BORTEZOMIB] registered a Ki of 13000 nM. In other words, the double-digit micromolar range.
